{"source": "patent US20240261374A1", "about": "“PHARMACEUTICAL COMPOSITION AND KIT COMPRISING AN IMMUNOMODULATORY SUBSTANCE FOR TREATING DISEASES” (ellennbe GmbH, priority 2021, published 2024)", "key": {"rheumatoid arthritis": {"test_system": "rheumatoid arthritis", "assay": "Treatment of patients suffering from rheumatoid arthritis (CRP, tender/swollen joints, HAQ, patient's statement)", "format": "in vivo, human"}, "skin": {"test_system": "skin", "conditions": "healthy subjects, cited from earlier work"}, "[1]": {"test_system": "ankylosing spondylitis (Bechterew's disease)", "format": "in vivo, human", "conditions": "for Outcome of earlier treatment with TNF-α inhibitors (patient history): human, in vivo"}, "polymyalgia rheumatica": {"test_system": "polymyalgia rheumatica", "assay": "Treatment of patients suffering from polymyalgia rheumatica (CRP, tender/swollen joints, HAQ)", "format": "in vivo, human", "conditions": "Patient 14; 70 mg gradually reduced to 8 mg, increased again to 10 mg", "source_text": "The investigation and determination of the joint condition has been performed by a physician or rheumatologist. A tender joint (TJ) was pressure sensitive but not necessarily swollen. […] The amount of TJ and SJ was counted. A reduction in the amounts of TJ and/or SJ, respectively, was an indication for a reduction in inflammation, mitigation of the disease and an improvement of the patient's health condition.\nThe CRP (C-reactive protein) is the most important blood laboratory value for detecting and monitoring inflammation in the body. It was determined by a certified laboratory. A low CRP indicates the absence of an inflammation, while a high CRP is indicative for an inflammation to be present.\nThe functional disability index (HAQ) is the average of the highest numerical values reported for each of the eight different domains. High HAQ-scores correspond to a high degree of disability.\nThe treatment according to the present invention was performed by topically applying a heat pad on the upper side of the forearm as described in the Materials and Methods' section ‘Application of a heat pad’. The heat pad was applied for about 1 min to 2 min. The skin turned red and became warm and an increase in the skin temperature was palpable. About 30 see to 1 min after removing the heat pad the injections were performed intradermally within the skin of the red and warmed skin area. […]"}}}
{"compound": "tocilizumab: IL-6 inhibitor", "values": [{"measurement": "Effectiveness of earlier or basic treatment (patient history)", "setting": "rheumatoid arthritis; Patient 7, not the treatment of the invention", "result": "only partially efficient"}]}
{"compound": "COC(=O)c1cccnc1", "note": "[MN, methyl nicotinate]", "values": [{"measurement": "Perfusion response of the skin", "setting": "skin; 50 μl of 20 mmol/l MN topically", "result": "reproducible perfusion response"}, {"measurement": "Time course of the perfusion increase", "setting": "skin; topical application of MN", "result": "reaches a stable plateau phase after five minutes"}]}
{"compound": "CC[C@@H]1CN(C(=O)NCC(F)(F)F)C[C@@H]1c1cnc2cnc3[nH]ccc3n12", "note": "[upadacitinib]", "values": [{"measurement": "Adverse side effects / outcome of earlier treatment (patient history)", "setting": "rheumatoid arthritis; Patient 7, years 2008 to April 2021", "result": "severe adverse effects (tendency to fibrosis in the lungs and sinusitis)"}]}
{"compound": "Simponi®: biologic, golimumab; TNF-α inhibitor", "values": [{"measurement": "Effect of earlier treatment with biologics (patient history)", "setting": "[1]; Patient 11, ended more than a year before, lost their effect within half a year", "result": "had little effect from the outset"}, {"measurement": "Outcome of earlier treatment with TNF-α inhibitors (patient history)", "setting": "[1]", "result": "accompanied by strong adverse side effects"}]}
{"compound": "C[C@]12C=CC(=O)C=C1CC[C@@H]1[C@@H]2[C@@H](O)C[C@@]2(C)[C@H]1CC[C@]2(O)C(=O)CO", "note": "[prednisolone]", "values": [{"measurement": "Outcome of earlier treatment (patient history)", "setting": "polymyalgia rheumatica", "result": "without complete remission of symptoms"}]}
{"compound": "CN(Cc1cnc2nc(N)nc(N)c2n1)c1ccc(C(=O)N[C@@H](CCC(=O)O)C(=O)O)cc1", "note": "[MTX, methotrexate]", "values": [{"measurement": "Adverse side effects / outcome of earlier treatment (patient history)", "setting": "rheumatoid arthritis; human, in vivo", "result": "severe adverse effects (tendency to fibrosis in the lungs and sinusitis)"}]}
{"compound": "Enbrel®", "values": [{"measurement": "Outcome of earlier treatment with TNF-α inhibitors (patient history)", "setting": "[1]", "result": "accompanied by strong adverse side effects"}]}
{"compound": "Remicade®: TNF-α inhibitor", "values": [{"measurement": "Outcome of earlier treatment with TNF-α inhibitors (patient history)", "setting": "[1]", "result": "accompanied by strong adverse side effects"}]}
